Measurements reported in ChEMBL document CHEMBL1201862, “PubChem BioAssay data set” (2004).
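1) Cells in 96-well plates. 2) Compound, 48 h, 5 concentrations. 3) Linear interpolation between surrounding doses. 4) Unreached endpoint = highest concentration. The concentration for 50% growth inhibition is given as GI50.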 The source made the active and inactive calls. Rule as the data show it: active = GI50 up to about 1.1 µM and inactive = higher.

Legend:
Test in all cases: growth of human tumour cells (NCI), 48 h
[1] = test system: SNB-75
[2] = test system: ACHN
[3] = test system: HT-29
[4] = test system: SN12C
[5] = test system: HOP-92
[6] = test system: RXF 393
[7] = test system: SF-295
[8] = test system: NCI-H522
[9] = test system: SF-268
[10] = test system: SNB-19
[11] = test system: U-251
[12] = test system: Malme-3M
[13] = test system: PC-3
[14] = test system: TK-10
[15] = test system: CAKI-1
[16] = test system: SR
[17] = test system: A549
[18] = test system: OVCAR-8
[19] = test system: HCC 2998
[20] = test system: HCT-116

| Compound | GI50 [1] | GI50 [2] | GI50 [3] | GI50 [4] | GI50 [5] | GI50 [6] | GI50 [7] | GI50 [8] | GI50 [9] | GI50 [10] | GI50 [11] | GI50 [12] | GI50 [13] | GI50 [14] | GI50 [15] | GI50 [16] | GI50 [17] | GI50 [18] | GI50 [19] | GI50 [20] |
| --- | --- | --- | --- | --- | --- | --- | --- | --- | --- | --- | --- | --- | --- | --- | --- | --- | --- | --- | --- | --- |
| CCCCc1ccc(Nc2nc(Cl)c3c(ncn3COCCOC(C)=O)n2)cc1 | 2.2 µM (inactive) | 18.5 µM (inactive) | 18.7 µM (inactive) | 19.3 µM (inactive) | 18.6 µM (inactive) | 12.9 µM (inactive) | 14.4 µM (inactive) | 17.2 µM (inactive) | 19.2 µM (inactive) | 20.9 µM (inactive) | 22.9 µM (inactive) | 19.4 µM (inactive) | 20.9 µM (inactive) | 20.4 µM (inactive) | 25.9 µM (inactive) | 20.7 µM (inactive) | 19 µM (inactive) | 18.3 µM (inactive) | 19.9 µM (inactive) | 17.3 µM (inactive) |
| O=c1oc2cc(O)ccc2c(O)c1C(c1ccccc1F)c1c(O)c2ccc(O)cc2oc1=O | > 100 µM (inactive) | > 100 µM (inactive) | > 100 µM (inactive) | > 100 µM (inactive) | 65.2 µM (inactive) | 39.7 µM (inactive) | > 100 µM (inactive) | > 100 µM (inactive) | 78.2 µM (inactive) | > 100 µM (inactive) | 42.3 µM (inactive) | – | > 100 µM (inactive) | > 100 µM (inactive) | > 100 µM (inactive) | 34.7 µM (inactive) | > 100 µM (inactive) | 56.4 µM (inactive) | 21.2 µM (inactive) | 48.4 µM (inactive) |
| CCc1ccccc1N1CCN(C(=O)c2cc(OC)c(OC)c(OC)c2)CC1 | 0.0182 µM (active) | < 0.0137 µM (active) | 0.0225 µM (active) | 0.184 µM (active) | 0.0977 µM (active) | 0.0105 µM (active) | 0.0134 µM (active) | 0.0134 µM (active) | 0.114 µM (active) | 0.067 µM (active) | 0.0316 µM (active) | 0.0232 µM (active) | < 0.0144 µM (active) | 0.0248 µM (active) | < 0.0205 µM (active) | 0.0893 µM (active) | 0.0452 µM (active) | 0.0914 µM (active) | 0.0585 µM (active) | 0.042 µM (active) |
| CCN(CC)CCNC(=O)c1cc2cc(NC(=O)c3cc4cc([N+](=O)[O-])ccc4[nH]3)ccc2[nH]1 | 4.89 µM (inactive) | 35.1 µM (inactive) | 2.93 µM (inactive) | > 65.2 µM (inactive) | 11 µM (inactive) | > 43.9 µM (inactive) | 27.6 µM (inactive) | 3.09 µM (inactive) | 13.6 µM (inactive) | 49.8 µM (inactive) | 1.84 µM (inactive) | – | > 39 µM (inactive) | 14.2 µM (inactive) | > 35.6 µM (inactive) | 7.29 µM (inactive) | 19.3 µM (inactive) | 2.99 µM (inactive) | 11.2 µM (inactive) | 2.85 µM (inactive) |
| CCOC(CCNCC(OCC)OCC)OCC | > 10 µM (inactive) | > 10 µM (inactive) | > 10 µM (inactive) | > 10 µM (inactive) | > 10 µM (inactive) | > 10 µM (inactive) | > 10 µM (inactive) | > 10 µM (inactive) | > 10 µM (inactive) | > 10 µM (inactive) | > 10 µM (inactive) | > 10 µM (inactive) | > 10 µM (inactive) | > 10 µM (inactive) | > 10 µM (inactive) | > 10 µM (inactive) | > 10 µM (inactive) | > 10 µM (inactive) | > 10 µM (inactive) | > 10 µM (inactive) |
| S=C1N=C2C(=N1)n1c3c(c4ccccc41)CCCC23 (configuration not stated) | > 100 µM (inactive) | > 100 µM (inactive) | 35.1 µM (inactive) | 29.4 µM (inactive) | > 100 µM (inactive) | > 100 µM (inactive) | 38.6 µM (inactive) | 22.1 µM (inactive) | 49 µM (inactive) | 56.8 µM (inactive) | 35 µM (inactive) | 64.9 µM (inactive) | 48.5 µM (inactive) | > 100 µM (inactive) | 42.4 µM (inactive) | 72.4 µM (inactive) | 29.2 µM (inactive) | 32.1 µM (inactive) | > 100 µM (inactive) | 35.2 µM (inactive) |
| O=C1C[C@@]23CCC4(CC2=CCC[C@H]3O1)OCCO4 | – | > 100 µM (inactive) | > 100 µM (inactive) | > 100 µM (inactive) | > 100 µM (inactive) | > 100 µM (inactive) | > 100 µM (inactive) | > 100 µM (inactive) | > 100 µM (inactive) | > 100 µM (inactive) | > 100 µM (inactive) | > 100 µM (inactive) | > 100 µM (inactive) | > 100 µM (inactive) | > 100 µM (inactive) | > 100 µM (inactive) | > 100 µM (inactive) | – | > 100 µM (inactive) | > 100 µM (inactive) |
| Cc1noc(NS(=O)(=O)c2ccc(NC(=O)c3ccc4nc5ccccc5c(Nc5ccc(S(=O)(=O)Nc6onc(C)c6C)cc5)c4c3)cc2)c1C | > 100 µM (inactive) | > 100 µM (inactive) | 73.3 µM (inactive) | > 100 µM (inactive) | > 100 µM (inactive) | 40.3 µM (inactive) | > 100 µM (inactive) | 52.1 µM (inactive) | > 100 µM (inactive) | > 100 µM (inactive) | > 100 µM (inactive) | > 100 µM (inactive) | > 100 µM (inactive) | > 100 µM (inactive) | > 100 µM (inactive) | 42 µM (inactive) | > 100 µM (inactive) | > 100 µM (inactive) | > 100 µM (inactive) | > 100 µM (inactive) |
| Cc1ccc(S(=O)(=O)[N-]C2C(=O)c3ccccc3C(=O)C2[n+]2cccc(C(N)=O)c2)cc1 (configuration not stated) | > 100 µM (inactive) | > 100 µM (inactive) | > 100 µM (inactive) | 30.3 µM (inactive) | > 100 µM (inactive) | > 100 µM (inactive) | > 100 µM (inactive) | > 100 µM (inactive) | > 100 µM (inactive) | > 100 µM (inactive) | > 100 µM (inactive) | – | > 100 µM (inactive) | 33.9 µM (inactive) | 40.9 µM (inactive) | > 100 µM (inactive) | > 100 µM (inactive) | > 100 µM (inactive) | 38.5 µM (inactive) | 17.4 µM (inactive) |
| O=C1/C(=C/c2ccc(Br)s2)NC(=S)N1c1ccccc1 | – | 32.1 µM (inactive) | > 100 µM (inactive) | 74.3 µM (inactive) | 25.7 µM (inactive) | 30.1 µM (inactive) | 43.6 µM (inactive) | 46.7 µM (inactive) | > 100 µM (inactive) | 26.9 µM (inactive) | 36.6 µM (inactive) | 68.1 µM (inactive) | > 100 µM (inactive) | > 100 µM (inactive) | 44.5 µM (inactive) | > 100 µM (inactive) | – | – | > 100 µM (inactive) | 44.4 µM (inactive) |
| CCn1c(-c2cc(OC)cc(OC)c2)nc2c1C(=O)c1ccccc1C2=O | 22.4 µM (inactive) | > 100 µM (inactive) | > 100 µM (inactive) | > 100 µM (inactive) | 60 µM (inactive) | 13.9 µM (inactive) | 29.2 µM (inactive) | 6.46 µM (inactive) | 65.8 µM (inactive) | > 100 µM (inactive) | > 100 µM (inactive) | > 100 µM (inactive) | > 100 µM (inactive) | > 100 µM (inactive) | – | > 100 µM (inactive) | > 100 µM (inactive) | > 100 µM (inactive) | > 100 µM (inactive) | > 100 µM (inactive) |
| COc1ccc(Oc2nc3ccc(C(F)(F)F)cc3nc2-c2ccccc2)cc1 | – | > 100 µM (inactive) | 54.3 µM (inactive) | > 100 µM (inactive) | 49.9 µM (inactive) | 50.5 µM (inactive) | > 100 µM (inactive) | > 100 µM (inactive) | > 100 µM (inactive) | > 100 µM (inactive) | > 100 µM (inactive) | > 100 µM (inactive) | > 100 µM (inactive) | > 100 µM (inactive) | > 100 µM (inactive) | 13.1 µM (inactive) | – | – | 25.3 µM (inactive) | > 100 µM (inactive) |
| COc1ccc2nc3cc([N+](=O)[O-])ccc3c(Nc3ccc(S(=O)(=O)N=C(N)N)cc3)c2c1 | – | 40.9 µM (inactive) | 22.1 µM (inactive) | 48.1 µM (inactive) | 11.5 µM (inactive) | 40.1 µM (inactive) | 47.1 µM (inactive) | 18.8 µM (inactive) | 28 µM (inactive) | 43.6 µM (inactive) | 30.5 µM (inactive) | 14 µM (inactive) | 12 µM (inactive) | 47.2 µM (inactive) | 23.3 µM (inactive) | 1.32 µM (inactive) | 47 µM (inactive) | – | 19 µM (inactive) | 11.9 µM (inactive) |
| COc1cc(C=O)cc(/C=N/N=C/c2ccccc2O)c1O | – | 16.7 µM (inactive) | 34.1 µM (inactive) | 17.6 µM (inactive) | 3.22 µM (inactive) | 37.3 µM (inactive) | 2.7 µM (inactive) | 40.5 µM (inactive) | 36.6 µM (inactive) | 32.3 µM (inactive) | 29.8 µM (inactive) | 3.97 µM (inactive) | 12.1 µM (inactive) | 82.6 µM (inactive) | 19.8 µM (inactive) | 19.8 µM (inactive) | 79.6 µM (inactive) | – | – | 26.1 µM (inactive) |
| N#C/C(=C/NC(=S)Nc1ccc(S(N)(=O)=O)cc1)C(N)=O | 42.1 µM (inactive) | > 100 µM (inactive) | > 100 µM (inactive) | > 100 µM (inactive) | > 100 µM (inactive) | > 100 µM (inactive) | > 100 µM (inactive) | > 100 µM (inactive) | > 100 µM (inactive) | – | > 100 µM (inactive) | > 100 µM (inactive) | > 100 µM (inactive) | > 100 µM (inactive) | > 100 µM (inactive) | > 100 µM (inactive) | > 100 µM (inactive) | > 100 µM (inactive) | > 100 µM (inactive) | > 100 µM (inactive) |
